Measurements from PubChem BioAssay (NCI).
Several values for one entry are separate records, joined by “and”; a condition that tells them apart may be missing. Equal entries are not always repeated.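 Assay format: 96-well plates, 48-hour exposure. GI50 is the concentration that inhibits growth by half. The concentration for full growth arrest is given as TGI.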 Where a SMILES comes first, the peptide text is derived from it. The star is where a group is joined. Cbz = O=C(OCc1ccccc1)*; Boc = CC(C)(C)OC(=O)*; OSu = O=C1CCC(=O)N1O*; Bn = c1ccc(C*)cc1

Columns and labels:
Test in all cases: DTP human tumour cell line panel, 48 h
[1] = test system: CAKI-1 renal
[2] = test system: HCC-2998 colon
[3] = test system: HOP-92 NSCLC
[4] = test system: MDA-N
[5] = test system: PC-3 prostate
[6] = test system: RXF 393 renal
[7] = test system: SNB-19 CNS
[8] = test system: TK-10 renal
[9] = test system: UO-31 renal
[10] = test system: LOX IMVI melanoma

| Compound | GI50 [1] [µM] | TGI [1] | GI50 [2] [µM] | TGI [2] [µM] | TGI [3] [µM] | GI50 [4] | TGI [4] | TGI [5] [µM] | GI50 [6] | TGI [6] | GI50 [7] | TGI [7] [µM] | GI50 [8] | GI50 [9] | TGI [9] | TGI [10] [µM] | TGI [8] [µM] |
| --- | --- | --- | --- | --- | --- | --- | --- | --- | --- | --- | --- | --- | --- | --- | --- | --- | --- |
| CC[C@@]1(O)C(=O)OCc2c1cc1n(c2=O)Cc2c-1nc1ccccc1c2C=Nc1ccccc1N[C@@H]1c2cc3c(cc2[C@@H](c2cc(OC)c(O)c(OC)c2)[C@H]2C(=O)OC[C@@H]21)OCO3 | 0.0138 | 0.807 µM and 0.494 µM | 10.3 | 24.6 | > 100 | 0.616 µM and 0.183 µM | 28 µM and 3.12 µM | > 65.8 | 0.317 µM and 0.0619 µM | 5.02 µM and 0.54 µM | 0.0869 µM and 0.0336 µM | > 52.5 | 3.49 µM and 0.549 µM | 0.129 µM and 0.0745 µM | 3.12 µM and 0.593 µM | – | – |
| CN(/N=C\c1ccc2ccccc2c1)C1=NCCCN1 | – | 22.7 µM | – | 27.2 | 14.5 | – | – | – | – | 35.4 µM | – | – | – | – | 25.2 µM | 21.6 | 34.2 |
| O=C(O)/C=C/c1ccncc1 | – | > 100 µM | – | > 100 | > 100 | – | – | – | – | > 100 µM | – | > 100 | – | – | > 100 µM | > 100 | > 100 |
| CCOC(=O)C1CCC(=O)N1C(=O)c1ccc(Cl)cc1 (stereo unspecified) | – | > 100 µM | – | > 100 | > 100 | – | > 100 µM | – | – | > 100 µM | – | > 100 | – | – | > 100 µM | > 100 | – |
| CC[C@]1(Cc2ccc(OC)c(OC)c2)C=[N+]([O-])O[C@H](OC2CCCC2(c2ccccc2)c2ccccc2)[C@@H]1OC(=O)C(C)(C)C (stereo partly specified) | – | > 100 µM | – | 3.71 | 18.2 | – | – | 14.8 | – | 3.53 µM | – | 30.3 | – | – | 3.97 µM | 4.18 | > 25.4 |
| CCOC(=O)c1c(-c2ccccc2)c(C)cn1C | – | – | – | – | > 10 | – | > 10 µM | – | – | > 10 µM | – | > 10 | – | – | > 10 µM | – | > 10 |
| Cc1ccccc1Nc1nc2ccccc2nc1NS(=O)(=O)c1ccccc1 | – | > 100 µM | – | > 100 | > 100 | – | – | > 100 | – | > 100 µM | – | > 100 | – | – | > 100 µM | > 100 | > 100 |
| NC(N)=NCCCC(NC(=O)c1c2ccccc2nc2ccccc12)C(=O)O (stereo unspecified) | – | > 100 µM | – | > 100 | > 100 | – | > 100 µM | > 100 | – | – | – | > 100 | – | – | > 100 µM | > 100 | > 100 |
| c1ccc(Nc2nnc(CCCCCCCCc3nnc(Nc4ccccc4)o3)o2)cc1 | – | > 100 µM | – | > 100 | – | – | – | > 100 | – | > 100 µM | – | > 100 | – | – | > 100 µM | > 100 | > 100 |
| CC[C@@]12CCC(=S)N(CCSc3ccccc3)[C@@H]1c1c(n(S(=O)(=O)c3ccc(OC)cc3)c3ccccc13)CC2 | – | > 100 µM | – | – | > 100 | – | – | > 100 | – | > 100 µM | – | > 100 | – | – | > 100 µM | > 100 | > 100 |
| C[n+]1c2ccccc2c(C(=O)Nc2ccc(S(=O)(=O)Nc3ncccn3)cc2)c2ccccc21 | – | > 100 µM | – | > 100 | – | – | > 100 µM | > 100 | – | – | – | > 100 | – | – | > 100 µM | > 100 | > 100 |
| CC(=O)N1c2cc(N=NN(C)C)ccc2NC(=O)CC1C (stereo unspecified) | – | > 100 µM | – | > 100 | – | – | > 100 µM | > 100 | – | > 100 µM | – | > 100 | – | – | > 100 µM | – | > 100 |
| O=S(=O)(O)c1cc(O)c(N=Nc2ccc3ccccc3c2O)c2ccccc12 | – | 70.6 µM | – | – | > 100 | – | > 100 µM | > 100 | – | > 100 µM | – | > 100 | – | – | 65 µM | – | > 100 |
| CC1CCCN1CCCOC(=O)c1ccc(OC2C=CCCC2)cc1 (stereo unspecified) | – | – | – | 64.9 | – | – | > 100 µM | 78.9 | – | 52 µM | – | > 100 | – | – | > 100 µM | 36.7 | 88.8 |
| CC(C)(C)OC(=O)NC(Cc1ccc(OCc2ccccc2)cc1)C(=O)NC(CCCCNC(=O)OCc1ccccc1)C(=O)NC(CCCCNC(=O)OCc1ccccc1)C(=O)ON1C(=O)CCC1=O (stereo unspecified) (Boc-Tyr(Bn)-Lys(Cbz)-Lys(Cbz)-OSu; configuration not given here) | – | > 100 µM | – | – | > 100 | – | 45.4 µM | – | – | > 100 µM | – | 30.7 | – | – | > 100 µM | – | > 100 |
| Cn1c(=O)c2c(nc(N/N=C3/SCC(=O)N3Cc3ccccc3)n2C)n(C)c1=O | – | > 100 µM | – | > 100 | 78.7 | – | > 100 µM | > 100 | – | > 100 µM | – | > 100 | – | – | > 100 µM | – | > 100 |
| CCCCCCCCCCCCC1N=C(N)NC2(CCCO2)C1C(=O)OC (stereo unspecified) | – | 30.6 µM | – | > 39.5 | 17.2 | – | – | 8.57 | – | 6.12 µM | – | 9.92 | – | – | 32.2 µM | – | 15.5 |
| COc1cccc(N=NN2CCCC2)c1 | – | > 100 µM | – | – | > 100 | – | > 100 µM | > 100 | – | > 100 µM | – | > 100 | – | – | > 100 µM | > 100 | > 100 |
| CC(C)=CCC/C(C)=C/C=C/C(C)=C/C1C[C@@]2(C(O)O1)[C@H](CCCO)/C(=C(/C)C=O)CC[C@]2(C)O (stereo partly specified) | – | 25.6 µM | – | 29.4 | – | – | – | – | – | 35.2 µM | – | 35.4 | – | – | 33.9 µM | 28 | 62.8 |
| Cc1ccc(NC(=O)C(=O)Cc2cccc[n+]2[O-])cc1C | – | > 100 µM | – | > 100 | – | – | – | – | – | > 100 µM | – | > 100 | – | – | > 100 µM | > 100 | > 100 |
| CC(C)=CC(=O)c1c(C(=O)O)nc2ccccc2[n+]1[O-] | – | > 100 µM | – | > 100 | > 100 | – | – | – | – | > 100 µM | – | > 100 | – | – | > 100 µM | > 100 | > 100 |
| CC1(Cl)CC(C)(/C=C/Cl)C(Cl)CC1Cl (stereo unspecified) | – | 33.3 µM | – | 32 | 16.8 | – | – | – | – | 30.6 µM | – | 31.4 | – | – | 29.8 µM | – | 76.7 |
| C(=C\c1c2oc(-c3ccccc3)cc(-c3ccccc3)c-2c2ccccc12)/C=C1\c2ccccc2-c2c(-c3ccccc3)cc(-c3ccccc3)[o+]c21 | – | – | – | > 100 | > 100 | – | – | – | – | > 100 µM | – | > 100 | – | – | > 100 µM | > 100 | > 100 |
| Clc1cc2ncn(C3CCCCO3)c2cc1Cl (stereo unspecified) | – | > 100 µM | – | > 100 | – | – | > 100 µM | > 100 | – | > 100 µM | – | > 100 | – | – | 49.8 µM | > 100 | – |
